# Several values for one entry are separate records, joined by “and”; a condition that tells them apart may be missing. Equal entries are not always repeated.
# Experiments:
# [1] = set-up: method as in Swissmedic special application Nr. SBH12-1310; conditions: one cancer patient, monotherapy 5600 mg/m2 once a week for 5 weeks; ref Swissmedic special application Nr. SBH12-1310; cited from earlier work
# CEA, AFP, CA19-9 = assay: Circulatory tumor-specific markers before vs after ITPP; format: in vivo, human; conditions: for Tumor marker AFP / Tumor marker CEA: individual patients
# From the text: Load the raw data of the tumor marker measurements, calculate fold changes (FC) and percentage changes comparing measurments per patient before and after ITPP treatment.
# [2] = in vivo
# [3] = of 22 patients with elevated markers, under ITPP
structure (smiles),measurement,setting,value
"O=P1(O)OC2C3OP(=O)(O)OP(=O)(O)OC3C3OP(=O)(O)OP(=O)(O)OC3C2OP(=O)(O)O1 (stereo not drawn) [ITPP, Myo-inositol trispyrophosphate]",Effect of the drug on the disease,[1],No effect
same,Patients with tumor markers not elevated,"CEA, AFP, CA19-9; CEA, AFP, CA19-9",5/27
same,Tumor marker AFP,"CEA, AFP, CA19-9; Day 1 pre (baseline before ITPP)",1572 µg/L and 11.2 µg/L and 270600 µg/L
same,Tumor marker CEA,"CEA, AFP, CA19-9; Day 1 pre (baseline before ITPP), ITPP cohort 2",2.8 µg/L
same,Tumor marker CEA,"CEA, AFP, CA19-9; Day 1 pre (baseline before ITPP), ITPP cohort 3",169.8 µg/L
same,Tumor marker CEA,"CEA, AFP, CA19-9; Day 1 pre (baseline before ITPP), ITPP cohort 6",3.2 µg/L and 1 µg/L and 291.6 µg/L
same,Tumor marker CEA,"CEA, AFP, CA19-9; Day 1 pre (baseline before ITPP), ITPP cohort 7",2205 µg/L and 2068 µg/L
same,Tumor marker CEA,"CEA, AFP, CA19-9; Day 1 pre (baseline before ITPP), ITPP cohort 8",7058 µg/L
same,Tumor marker AFP,"CEA, AFP, CA19-9; Day 3 post",1167 µg/L and 11.2 µg/L
same,Tumor marker CEA,"CEA, AFP, CA19-9; Day 3 post, ITPP cohort 2",2.9 µg/L
same,Tumor marker CEA,"CEA, AFP, CA19-9; Day 3 post, ITPP cohort 3",165.1 µg/L
same,Tumor marker CEA,"CEA, AFP, CA19-9; Day 3 post, ITPP cohort 6",3.2 µg/L and 2.3 µg/L and 300.1 µg/L
same,Tumor marker CEA,"CEA, AFP, CA19-9; Day 3 post, ITPP cohort 7",2190 µg/L and 2209 µg/L
same,Tumor marker CEA,"CEA, AFP, CA19-9; Day 3 post, ITPP cohort 8",7145 µg/L
same,Tumor marker AFP,"CEA, AFP, CA19-9; Day 9 post",1017 µg/L and 5.1 µg/L and 204800 µg/L
same,Tumor marker CEA,"CEA, AFP, CA19-9; Day 9 post, ITPP cohort 2",2.9 µg/L
same,Tumor marker CEA,"CEA, AFP, CA19-9; Day 9 post, ITPP cohort 3",247.8 µg/L
same,Tumor marker CEA,"CEA, AFP, CA19-9; Day 9 post, ITPP cohort 6",4.6 µg/L and 1 µg/L and 451 µg/L
same,Tumor marker CEA,"CEA, AFP, CA19-9; Day 9 post, ITPP cohort 7",2055 µg/L and 3058 µg/L
same,Tumor marker CEA,"CEA, AFP, CA19-9; Day 9 post, ITPP cohort 8",7626 µg/L
same,Patients with a decrease in tumor marker levels,"CEA, AFP, CA19-9; [3]",11
same,Patients with an increase in tumor marker levels,"CEA, AFP, CA19-9; [3]",11
same,Time of peak plasma levels (Cmax) after infusion start,[2]; human,6 h
same,ITPP baseline levels at infusion start (Cmin),[2],below the detection threshold

# Reference: PMC8217170, “Phase Ib dose-escalation study of the hypoxia-modifier Myo-inositol trispyrophosphate in patients with hepatopancreatobiliary tumors” (Nature Communications, 2021)
